{"source": "patent US7138361B2", "about": "“Herbicidal heterocycles” (E. I. du Pont de Nemours and Company, priority 2000, dated 2006)", "experiment_in_all_cases": "Test C preemergence", "type_in_all_cases": "in vivo", "key": {"[1]": {"test_system": "goosegrass (Eleusine indica)", "source_text": "(§1) Seeds of plant species selected from bermudagrass (Cynodon dactylon), Surinam grass (Brachiaria decumbens), cocklebur (Xanthium strumarium), corn (Zea mays), crabgrass (Digitaria sanguinalis), woolly cupgrass (Eriochloa villosa), giant foxtail (Setaria faberii), goosegrass (Eleusine indica), johnsongrass (Sorghum halepense), kochia (Kochia scoparia), lambsquarters (Chenopodium album), morningglory (Ipomoea hederacea), yellow nutsedge (Cyperus esculentus), pigweed (Amaranthus retroflexus), common ragweed (Ambrosia elatior), soybean (Glycine max) and velvetleaf (Abutilon theophrasti) were planted and treated preemergence with test chemicals formulated in a non-phytotoxic solvent mixture which included a surfactant.\n(§2) At the same time, plants selected from these crop and weed species and also winter barley (Hordeum vulgare), blackgrass (Alopecurus myosuroides), canary grass (Phalaris minor), chickweed (Stellaria media), downy brome (Bromus tectorum), green foxtail (Setaria viridis), Italian ryegrass (Lolium multiflorum), wheat (Triticum aestivum), wild oat (Avena fatua) and windgrass (Apera spica-venti) were treated with postemergence applications of some of the test chemicals formulated in the same manner. Plants ranged in height from 2 to 18 cm (1- to 4-leaf stage) for postemergence treatments. Plant species in the flooded paddy test consisted of rice (Oryza saliva), smallflower flatsedge (Cyperus difformis), duck salad (Heteranthera limosa) and barnyardgrass (Echinochloa crus-galli) grown to the 2-leaf stage for testing. Treated plants and controls were maintained in a greenhouse for 12 to 14 days, after which time all species were compared to controls and visually evaluated. Plant response ratings, summarized in Table C, are based on a scale of 0 to 100 where 0 is no effect and 100 is complete control. A dash (-) response means no test result."}, "[2]": {"test_system": "kochia (Kochia scoparia)", "source_text": "as §1, §2"}, "[3]": {"test_system": "common ragweed (Ambrosia elatior)", "source_text": "as §1, §2"}, "[4]": {"test_system": "morningglory (Ipomoea hederacea)", "source_text": "as §1, §2"}, "[5]": {"test_system": "cocklebur (Xanthium strumarium)", "source_text": "as §1, §2"}, "[6]": {"test_system": "bermudagrass (Cynodon dactylon)", "source_text": "as §1, §2"}, "[7]": {"test_system": "Nightshade", "source_text": "as §1, §2"}, "[8]": {"test_system": "crabgrass (Digitaria sanguinalis)", "source_text": "as §1, §2"}, "[9]": {"test_system": "soybean (Glycine max)", "source_text": "as §1, §2"}, "[10]": {"test_system": "Sunflower", "source_text": "as §1, §2"}, "[11]": {"test_system": "giant foxtail (Setaria faberii)", "source_text": "as §1, §2"}, "[12]": {"test_system": "pigweed (Amaranthus retroflexus)", "source_text": "as §1, §2"}, "[13]": {"test_system": "velvetleaf (Abutilon theophrasti)", "source_text": "as §1, §2"}, "[14]": {"test_system": "lambsquarters (Chenopodium album)", "source_text": "as §1, §2"}, "[15]": {"test_system": "Surinam grass (Brachiaria decumbens)", "source_text": "as §1, §2"}, "[16]": {"test_system": "johnsongrass (Sorghum halepense)", "source_text": "as §1, §2"}, "[17]": {"test_system": "yellow nutsedge (Cyperus esculentus)", "source_text": "as §1, §2"}, "[18]": {"test_system": "corn (Zea mays)", "source_text": "as §1, §2"}, "[19]": {"test_system": "woolly cupgrass (Eriochloa villosa)", "source_text": "as §1, §2"}, "[20]": {"test_system": "Sunflower", "details": "Rate 125 g/ha, scale 0 to 100, 0 no effect, 100 complete control"}, "[21]": {"details": "Preemergence, Rate 500 g/ha, scale 0 to 100"}, "[22]": {"details": "Rate 62 g/ha, scale 0 to 100, 0 no effect, 100 complete control"}, "[23]": {"details": "preemergence, Rate 250 g/ha, visual evaluation after 12 to 14 days"}, "[24]": {"details": "preemergence, Rate 125 g/ha, scale 0 to 100, 0 no effect, 100 complete control"}}}
{"compound": "O=C1C(n2ccc(C3CC3)n2)CCN1c1cccc(C(F)(F)F)c1", "note": "(stereo not shown) [Compound 8]", "values": [{"measurement": "Plant response rating, Goosegrass", "setting": "[1]; [21]", "value": 100}, {"measurement": "Plant response rating, Goosegrass", "setting": "[1]; [22]", "value": 0}, {"measurement": "Plant response rating (0 to 100), Goosegrass", "setting": "[1]; [23]", "value": 90}, {"measurement": "Plant response rating, Goosegrass", "setting": "[1]; [24]", "value": 20}, {"measurement": "Plant response rating, Kochia", "setting": "[2]; [21]", "value": 70}, {"measurement": "Plant response rating, Kochia", "setting": "[2]; [22]", "value": 0}, {"measurement": "Plant response rating (0 to 100), Kochia", "setting": "[2]; [23]", "value": 20}, {"measurement": "Plant response rating, Kochia", "setting": "[2]; [24]", "value": 0}, {"measurement": "Plant response rating, Ragweed, Common", "setting": "[3]; [21]", "value": 80}, {"measurement": "Plant response rating, Ragweed, Common", "setting": "[3]; [22]", "value": 0}, {"measurement": "Plant response rating, Ragweed, Common", "setting": "[3]; [24]", "value": 0}, {"measurement": "Plant response rating, Morningglory", "setting": "[4]; [21]", "value": 30}, {"measurement": "Plant response rating, Morningglory", "setting": "[4]; [22]", "value": 20}, {"measurement": "Plant response rating (0 to 100), Morningglory", "setting": "[4]; [23]", "value": 30}, {"measurement": "Plant response rating, Morningglory", "setting": "[4]; [24]", "value": 30}, {"measurement": "Plant response rating, Cocklebur", "setting": "[5]; [21]", "value": 0}, {"measurement": "Plant response rating, Cocklebur", "setting": "[5]; [22]", "value": 0}, {"measurement": "Plant response rating (0 to 100), Cocklebur", "setting": "[5]; [23]", "value": 0}, {"measurement": "Plant response rating, Cocklebur", "setting": "[5]; [24]", "value": 0}, {"measurement": "Plant response rating, Bermudagrass", "setting": "[6]; [21]", "value": 100}, {"measurement": "Plant response rating, Bermudagrass", "setting": "[6]; [22]", "value": 0}, {"measurement": "Plant response rating (0 to 100 where 0 is no effect and 100 is complete control), Bermudagrass", "setting": "[6]; [23]", "value": 70}, {"measurement": "Plant response rating, Bermudagrass", "setting": "[6]; [24]", "value": 70}, {"measurement": "Plant response rating, Nightshade", "setting": "[7]; [22]", "value": 0}, {"measurement": "Plant response rating, Nightshade", "setting": "[7]; Rate 125 g/ha, scale 0 to 100, 0 no effect, 100 complete control", "value": 0}, {"measurement": "Plant response rating, Nightshade", "setting": "[7]; Rate 500 g/ha, scale 0 to 100", "value": 0}, {"measurement": "Plant response rating, Crabgrass", "setting": "[8]; [21]", "value": 100}, {"measurement": "Plant response rating, Crabgrass", "setting": "[8]; [22]", "value": 70}, {"measurement": "Plant response rating (0 to 100), Crabgrass", "setting": "[8]; [23]", "value": 90}, {"measurement": "Plant response rating, Crabgrass", "setting": "[8]; [24]", "value": 70}, {"measurement": "Plant response rating, Soybean", "setting": "[9]; [21]", "value": 20}, {"measurement": "Plant response rating, Soybean", "setting": "[9]; [22]", "value": 0}, {"measurement": "Plant response rating (0 to 100), Soybean", "setting": "[9]; [23]", "value": 20}, {"measurement": "Plant response rating, Soybean", "setting": "[9]; [24]", "value": 0}, {"measurement": "Plant response rating, Sunflower", "setting": "[10]; [22]", "value": 0}, {"measurement": "Plant response rating, Sunflower", "setting": "[10]; Rate 500 g/ha, scale 0 to 100", "value": 30}, {"measurement": "Plant response rating, Foxtail, Giant", "setting": "[11]; [21]", "value": 100}, {"measurement": "Plant response rating, Foxtail, Giant", "setting": "[11]; [22]", "value": 0}, {"measurement": "Plant response rating (0 to 100), Foxtail, Giant", "setting": "[11]; [23]", "value": 90}, {"measurement": "Plant response rating, Foxtail, Giant", "setting": "[11]; [24]", "value": 20}, {"measurement": "Plant response rating, Pigweed", "setting": "[12]; [21]", "value": 100}, {"measurement": "Plant response rating, Pigweed", "setting": "[12]; [22]", "value": 20}, {"measurement": "Plant response rating (0 to 100), Pigweed", "setting": "[12]; [23]", "value": 100}, {"measurement": "Plant response rating, Pigweed", "setting": "[12]; [24]", "value": 80}, {"measurement": "Plant response rating, Velvetleaf", "setting": "[13]; [21]", "value": 20}, {"measurement": "Plant response rating, Velvetleaf", "setting": "[13]; [22]", "value": 0}, {"measurement": "Plant response rating (0 to 100), Velvetleaf", "setting": "[13]; [23]", "value": 20}, {"measurement": "Plant response rating, Velvetleaf", "setting": "[13]; [24]", "value": 0}, {"measurement": "Plant response rating, Lambsquarters", "setting": "[14]; [21]", "value": 100}, {"measurement": "Plant response rating, Lambsquarters", "setting": "[14]; [22]", "value": 100}, {"measurement": "Plant response rating (0 to 100), Lambsquarters", "setting": "[14]; [23]", "value": 100}, {"measurement": "Plant response rating, Lambsquarters", "setting": "[14]; [24]", "value": 100}, {"measurement": "Plant response rating, Surinam grass", "setting": "[15]; [21]", "value": 60}, {"measurement": "Plant response rating, Surinam grass", "setting": "[15]; [22]", "value": 0}, {"measurement": "Plant response rating (0 to 100), Surinam grass", "setting": "[15]; [23]", "value": 50}, {"measurement": "Plant response rating, Surinam grass", "setting": "[15]; [24]", "value": 0}, {"measurement": "Plant response rating, Johnsongrass", "setting": "[16]; [21]", "value": 0}, {"measurement": "Plant response rating, Johnsongrass", "setting": "[16]; [22]", "value": 0}, {"measurement": "Plant response rating (0 to 100), Johnsongrass", "setting": "[16]; [23]", "value": 0}, {"measurement": "Plant response rating, Johnsongrass", "setting": "[16]; [24]", "value": 0}, {"measurement": "Plant response rating, Nutsedge", "setting": "[17]; [21]", "value": 0}, {"measurement": "Plant response rating, Nutsedge", "setting": "[17]; [22]", "value": 0}, {"measurement": "Plant response rating (0 to 100), Nutsedge", "setting": "[17]; [23]", "value": 0}, {"measurement": "Plant response rating, Nutsedge", "setting": "[17]; [24]", "value": 0}, {"measurement": "Plant response rating, Corn", "setting": "[18]; [21]", "value": 0}, {"measurement": "Plant response rating, Corn", "setting": "[18]; [22]", "value": 0}, {"measurement": "Plant response rating (0 to 100), Corn", "setting": "[18]; [23]", "value": 0}, {"measurement": "Plant response rating, Corn", "setting": "[18]; [24]", "value": 0}, {"measurement": "Plant response rating, Cupgrass, Woolly", "setting": "[19]; [21]", "value": 80}, {"measurement": "Plant response rating, Cupgrass, Woolly", "setting": "[19]; [22]", "value": 0}, {"measurement": "Plant response rating (0 to 100), Cupgrass, Woolly", "setting": "[19]; [23]", "value": 50}, {"measurement": "Plant response rating, Cupgrass, Woolly", "setting": "[19]; [24]", "value": 40}, {"measurement": "Plant response rating, Sunflower", "setting": "[20]", "value": 0}]}
